# Assay results from ChEMBL document CHEMBL1765086, “Structural modifications of UMP, UDP, and UTP leading to subtype-selective agonists for P2Y2, P2Y4, and P2Y6 receptors” (J Med Chem, 2011).
# Tests used:
# [1] = target: T1, P2Y purinoceptor 4 (Homo sapiens, UniProt P51582); experiment: Agonist activity at human recombinant P2Y4 receptor expressed in human 1321N1 cells assessed as [3H]inositol phosphate intracellular accumulation by scintillation proximity assay; assay type: functional, cell-based
# [2] = target: T2, P2Y purinoceptor 6 (Homo sapiens, UniProt Q15077); experiment: Agonist activity at human recombinant P2Y6 receptor expressed in human 1321N1 cells assessed as [3H]inositol phosphate intracellular accumulation by scintillation proximity assay; assay type: functional, cell-based
# [3] = target: T3, P2Y purinoceptor 2 (Homo sapiens, UniProt P41231); experiment: Agonist activity at human recombinant P2Y2 receptor expressed in human 1321N1 cells assessed as [3H]inositol phosphate intracellular accumulation by scintillation proximity assay; assay type: functional, cell-based
# [4] = organism: Homo sapiens; experiment: Selectivity ratio of EC50 for human P2Y6 receptor to EC50 for human P2Y2 receptor
# [5] = organism: Homo sapiens; experiment: Selectivity ratio of EC50 for human P2Y2 receptor to EC50 for human P2Y4 receptor
# [6] = organism: Homo sapiens; experiment: Selectivity ratio of EC50 for human P2Y4 receptor to EC50 for human P2Y2 receptor
# [7] = organism: Homo sapiens; experiment: Selectivity ratio of EC50 for human P2Y6 receptor to EC50 for human P2Y4 receptor
# [8] = target: T1, P2Y purinoceptor 4; experiment: Agonist activity at P2Y4 receptor; assay type: functional
# [9] = organism: Homo sapiens; experiment: Selectivity ratio of EC50 for human P2Y2 receptor to EC50 for human P2Y6 receptor
# [10] = organism: Homo sapiens; experiment: Selectivity ratio of EC50 for human P2Y4 receptor to EC50 for human P2Y6 receptor
# [11] = target: T3, P2Y purinoceptor 2; experiment: Ratio of compound EC50 to UDP EC50 for human recombinant P2Y2 receptor
# [12] = target: T2, P2Y purinoceptor 6; experiment: Agonist activity at P2Y6 receptor; assay type: functional
# [13] = target: T3, P2Y purinoceptor 2; experiment: Agonist activity at P2Y2 receptor; assay type: functional
# T2 sequence (Q15077 whole entry): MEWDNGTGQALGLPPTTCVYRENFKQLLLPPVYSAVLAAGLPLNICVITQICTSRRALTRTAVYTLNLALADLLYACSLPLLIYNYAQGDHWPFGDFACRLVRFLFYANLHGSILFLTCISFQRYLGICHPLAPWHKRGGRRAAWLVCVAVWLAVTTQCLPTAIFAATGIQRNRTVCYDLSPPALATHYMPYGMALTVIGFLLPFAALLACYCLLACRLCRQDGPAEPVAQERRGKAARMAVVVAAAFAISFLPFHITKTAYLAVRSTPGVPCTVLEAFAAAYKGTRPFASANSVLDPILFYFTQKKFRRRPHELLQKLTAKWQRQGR
# T1 sequence (P51582 whole entry): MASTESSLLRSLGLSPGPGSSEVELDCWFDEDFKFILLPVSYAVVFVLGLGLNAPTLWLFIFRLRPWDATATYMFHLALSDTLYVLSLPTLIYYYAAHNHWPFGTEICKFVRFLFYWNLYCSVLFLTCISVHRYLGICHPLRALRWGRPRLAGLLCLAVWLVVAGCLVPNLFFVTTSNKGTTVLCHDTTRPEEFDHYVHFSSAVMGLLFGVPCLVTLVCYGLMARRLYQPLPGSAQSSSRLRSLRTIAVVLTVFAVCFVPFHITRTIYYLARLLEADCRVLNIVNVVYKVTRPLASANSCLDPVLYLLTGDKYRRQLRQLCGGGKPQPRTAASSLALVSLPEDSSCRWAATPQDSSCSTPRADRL
# T3 sequence (P41231 whole entry): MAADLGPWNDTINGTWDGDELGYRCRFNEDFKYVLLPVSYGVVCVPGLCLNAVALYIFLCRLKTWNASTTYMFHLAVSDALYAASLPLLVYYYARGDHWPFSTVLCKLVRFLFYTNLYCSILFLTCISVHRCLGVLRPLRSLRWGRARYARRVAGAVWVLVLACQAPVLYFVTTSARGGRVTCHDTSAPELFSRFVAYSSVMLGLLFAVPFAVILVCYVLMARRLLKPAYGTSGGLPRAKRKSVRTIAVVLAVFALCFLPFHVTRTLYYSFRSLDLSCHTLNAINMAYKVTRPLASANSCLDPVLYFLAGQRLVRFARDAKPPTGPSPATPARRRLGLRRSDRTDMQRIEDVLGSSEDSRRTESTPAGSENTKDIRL
compound,measurement,setting,value
CNc1nc(=O)ccn1[C@@H]1O[C@H](COP(=O)(O)O)[C@@H](O)[C@H]1O,EC50,[1],> 100 µM
same,EC50,[2],> 100 µM
same,EC50,[3],> 100 µM
O=c1ccn([C@@H]2O[C@H](COP(=O)(O)OP(=O)(O)C(F)(F)P(=O)(O)O)[C@@H](O)[C@H]2O)c(=O)[nH]1,Ratio EC50,[4],2
same,EC50,[1],> 100 µM
same,EC50,[2],2.63 µM
same,EC50,[3],4.9 µM
COc1nc(=O)ccn1[C@@H]1O[C@H](COP(=O)(O)O)[C@@H](O)[C@H]1O,EC50,[1],> 100 µM
same,EC50,[2],9.8 µM
same,EC50,[3],9.9 µM
CNc1nc(=O)ccn1[C@@H]1O[C@H](COP(=O)(O)OP(=O)(O)O)[C@@H](O)[C@H]1O,EC50,[1],≥ 100 µM
same,EC50,[2],> 100 µM
same,EC50,[3],7.6 µM
Nc1nc(=O)ccn1[C@@H]1O[C@H](COP(=O)(O)O)[C@@H](O)[C@H]1O,Ratio EC50,[4],> 100
same,Ratio EC50,[5],> 20
same,EC50,[2],> 100 µM
same,EC50,[3],> 100 µM
same,Ratio EC50,[6],> 100
same,Ratio EC50,[7],> 20
CCCSc1nc(=O)ccn1[C@@H]1O[C@H](COP(=O)(O)O)[C@@H](O)[C@H]1O,EC50,[1],> 100 µM
same,EC50,[2],6.2 µM
same,EC50,[3],4.8 µM
CCCSc1nc(=O)ccn1[C@@H]1O[C@H](COP(=O)(O)OP(=O)(O)O)[C@@H](O)[C@H]1O,EC50,[1],4.9 µM
same,EC50,[2],≥ 100 µM
same,EC50,[3],1.2 µM
O=c1ccn([C@@H]2O[C@H](COP(=O)(O)OP(=O)(O)C(Cl)(Cl)P(=O)(O)O)[C@@H](O)[C@H]2O)c(=S)[nH]1,EC50,[1],3.85 µM
same,EC50,[2],7.7 µM
same,EC50,[3],0.794 µM
O=c1ccn([C@@H]2O[C@H](COP(=O)(O)OP(=O)(O)O)[C@@H](O)[C@H]2O)c(SCc2ccccc2)n1,EC50,[1],5.98 µM
same,EC50,[2],6.8 µM
same,EC50,[3],6.2 µM
O=c1ccn([C@@H]2O[C@H](COP(=O)(O)OP(=O)(O)O)[C@@H](O)[C@H]2O)c(=O)[nH]1 [URIDINE_DIPHOSPHATE],EC50,[1],14 µM
same,EC50,[2],0.048 µM
same,EC50,[3],16.5 µM
O=C(Cn1c(=O)ccn([C@@H]2O[C@H](COP(=O)(O)OP(=O)(O)C(F)(F)P(=O)(O)O)[C@@H](O)[C@H]2O)c1=O)c1ccccc1,EC50,[1],3.93 µM
same,EC50,[2],1.46 µM
same,EC50,[3],1.2 µM
O=c1ccn([C@@H]2O[C@H](COP(=O)(O)OP(=O)(O)O)[C@@H](O)[C@H]2O)c(SCCc2ccccc2)n1,EC50,[1],≥ 100 µM
same,EC50,[2],2.5 µM
same,EC50,[3],0.544 µM
O=c1[nH]c(=S)ccn1[C@@H]1O[C@H](COP(=O)(O)OP(=O)(O)C(Cl)(Cl)P(=O)(O)O)[C@@H](O)[C@H]1O,EC50,[1],7.87 µM
same,EC50,[2],8.1 µM
same,EC50,[3],1.81 µM
CSc1nc(=O)ccn1[C@@H]1O[C@H](COP(=O)(O)O)[C@@H](O)[C@H]1O,EC50,[1],> 100 µM
same,EC50,[2],> 100 µM
same,EC50,[3],2.9 µM
O=c1ccn([C@@H]2O[C@H](COP(=O)(O)O)[C@@H](O)[C@H]2O)c(SCCc2ccccc2)n1,Ratio EC50,[4],100
same,EC50,[1],> 100 µM
same,EC50,[2],> 100 µM
same,EC50,[3],1.3 µM
same,Ratio EC50,[6],> 100
O=c1[nH]c(=S)ccn1[C@@H]1O[C@H](COP(=O)(O)OP(=O)(O)OP(=O)(O)O)[C@@H](O)[C@H]1O,EC50,[8],0.023 µM
same,EC50,[1],0.023 µM
same,EC50,[3],0.026 µM
O=c1[nH]c(=O)n([C@@H]2O[C@H](COP(=O)(O)OP(=O)(O)OP(=O)(O)Nc3ccccc3)[C@@H](O)[C@H]2O)cc1Br,EC50,[1],> 100 µM
same,EC50,[2],6.1 µM
same,EC50,[3],1.8 µM
O=c1ccn([C@@H]2O[C@H](COP(=O)(O)OP(=O)(O)OP(=O)(O)O)[C@@H](O)[C@H]2O)c(=O)[nH]1 [URIDINE TRIPHOSPHATE],EC50,[1],0.0884 µM
same,EC50,[3],0.0179 µM
O=C(Cn1c(=O)ccn([C@@H]2O[C@H](COP(=O)(O)OP(=O)(O)C(Cl)(Cl)P(=O)(O)O)[C@@H](O)[C@H]2O)c1=O)c1ccccc1,EC50,[1],7.3 µM
same,Ratio EC50,[9],6
same,EC50,[2],0.142 µM
same,EC50,[3],0.826 µM
same,Ratio EC50,[10],50
O=c1ccn([C@@H]2O[C@H](COP(=O)(O)OP(=O)(O)C(Cl)(Cl)P(=O)(O)O)[C@@H](O)[C@H]2O)c(=O)[nH]1,EC50,[1],≥ 100 µM
same,EC50,[2],6.2 µM
same,EC50,[3],0.612 µM
CSc1nc(=O)ccn1[C@@H]1O[C@H](COP(=O)(O)OP(=O)(O)O)[C@@H](O)[C@H]1O,EC50,[1],1.52 µM
same,EC50,[2],4.7 µM
same,EC50,[3],0.523 µM
same,Ratio EC50,[11],33
O=c1ccn([C@@H]2O[C@H](COP(=O)(O)OP(=O)(O)OP(=O)(O)OP(=O)(O)OC[C@H]3O[C@@H](n4ccc(=O)[nH]c4=O)[C@H](O)[C@@H]3O)[C@@H](O)[C@H]2O)c(=O)[nH]1 [DIQUAFOSOL TETRASODIUM],EC50,[8],0.4 µM
same,EC50,[12],2 µM
O=c1ccn([C@@H]2O[C@H](COP(=O)(O)O)[C@@H](O)[C@H]2O)c(SCc2ccccc2)n1,EC50,[1],> 100 µM
same,EC50,[2],> 100 µM
same,EC50,[3],≥ 100 µM
Nc1nc(=O)ccn1[C@@H]1O[C@H](COP(=O)(O)OP(=O)(O)O)[C@@H](O)[C@H]1O,Ratio EC50,[4],> 100
same,EC50,[1],≥ 100 µM
same,EC50,[2],≥ 100 µM
same,EC50,[3],0.604 µM
same,Ratio EC50,[6],> 100
O=c1[nH]c(=S)ccn1[C@@H]1O[C@H](COP(=O)(O)OP(=O)(O)C(F)(F)P(=O)(O)O)[C@@H](O)[C@H]1O,Ratio EC50,[4],> 60
same,EC50,[1],9.3 µM
same,EC50,[2],7 µM
same,EC50,[3],0.134 µM
same,Ratio EC50,[6],> 60
Nc1ccn([C@H]2C[C@H](O)[C@@H](COP(=O)(O)OP(=O)(O)OP(=O)(O)OP(=O)(O)OC[C@H]3O[C@@H](n4ccc(=O)[nH]c4=O)[C@H](O)[C@@H]3O)O2)c(=O)n1 [DENUFOSOL TETRASODIUM],EC50,[8],0.8 µM
same,EC50,[13],0.2 µM
same,EC50,[12],> 1 µM
CCSc1nc(=O)ccn1[C@@H]1O[C@H](COP(=O)(O)O)[C@@H](O)[C@H]1O,EC50,[1],4.33 µM
same,EC50,[2],> 100 µM
same,EC50,[3],1.5 µM
COc1nc(=O)ccn1[C@@H]1O[C@H](COP(=O)(O)OP(=O)(O)O)[C@@H](O)[C@H]1O,EC50,[1],4.49 µM
same,EC50,[2],1.37 µM
same,EC50,[3],0.907 µM
O=c1[nH]c(=S)ccn1[C@@H]1O[C@H](COP(=O)(O)O)[C@@H](O)[C@H]1O,EC50,[1],> 100 µM
same,EC50,[2],> 100 µM
same,EC50,[3],> 100 µM
